Data reported in patent US20040210063A1 (priority 2001, published 2004).
pIC50: −log10 of the molar value. Counter-ions that a name gives are not always drawn.

Key:
human GSK-3β = human GSK-3β (Homo sapiens, UniProt P49841); assay: Assay (I): inhibition of GSK-3, 33P-ATP phosphorylation of a glycogen synthase derived substrate; assay type: biochemical; settings: 35 μM substrate, 0.1 mM 33P-labeled ATP, 60 min at room temperature
Method: Inhibition of GSK-3 by a test compound was evaluated using human GSK-3β and a glycogen synthase derived substrate with the following amino acid sequence:
In brief, GSK-3β was incubated with 35 μM substrate and varying concentrations of test compound in a buffer containing 0.1 mM ^33P-labeled ATP, 10 mM magnesium acetate, 8 mM MOPS pH 7.0, 0.2 mM EDTA, 0.1% dithiothreitol and 0.03% Triton-X100 for 60 min at room temperature. The reaction was performed using 96-well plates. The reaction was terminated by adding 13 μl 2% phosphoric acid to each well, and 10 μl was spotted onto P30 paper which was washed 4 times in 0.5% phosphoric acid to remove non-incorporated ^33P-labeled ATP. After drying the radioactivity was counted in a Wallac. Dose-response profiles were generated, and the IC50 value for inhibition of GSK-3 by the test compound was calculated using a four-parameter logistic function.

[1] = tested on: cyclin-dependent kinases (CDKs); settings: at the tested concentration; Table I of WO 99/21845; cited from earlier work

Sequence of human GSK-3β (P49841 whole entry): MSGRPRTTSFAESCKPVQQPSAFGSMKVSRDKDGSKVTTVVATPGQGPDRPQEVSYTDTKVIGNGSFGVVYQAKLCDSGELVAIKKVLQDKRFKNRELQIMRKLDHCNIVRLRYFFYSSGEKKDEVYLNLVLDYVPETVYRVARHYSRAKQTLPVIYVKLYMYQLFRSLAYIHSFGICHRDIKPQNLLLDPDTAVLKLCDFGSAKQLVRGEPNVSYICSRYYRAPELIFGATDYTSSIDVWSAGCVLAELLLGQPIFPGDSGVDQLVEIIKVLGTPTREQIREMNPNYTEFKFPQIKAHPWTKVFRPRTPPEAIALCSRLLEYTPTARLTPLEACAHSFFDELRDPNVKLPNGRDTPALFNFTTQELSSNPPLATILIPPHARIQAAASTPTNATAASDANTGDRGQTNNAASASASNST

Compound | melting point [°C] | pIC50 (human GSK-3β) | CDK inhibition [1]
Nc1nc(NCCCN2CCCC2=O)sc1C(=O)c1cccc(OCc2ccccc2)c1 [Example 9] | 184 | > 6.00 | 
Nc1nc(NCCN2CCCCC2)sc1C(=O)c1ccc(F)cc1 [I(6)] |  |  | No CDK inhibition was observed
CC(C)(C)OC(=O)N1CCC(Nc2nc(N)c(C(=O)c3cccc(OCc4ccccc4)c3)s2)CC1 [Example 5, 4-[4-Amino-5-(3-benzyloxybenzoyl)thiazol-2-ylamino]piperidine-1-carboxylic acid tert-butyl ester] |  | > 6.00 | 
CC(C)(C)OC(=O)NCCCNc1nc(N)c(C(=O)c2ccc(Cl)s2)s1 [Example 3, 3-[4-Amino-5-(5-chlorothiophene-2-carbonyl)thiazol-2-ylamino]propylcarbamic acid tert-butyl ester] |  | > 6.00 | 
CC(C)(C)OC(=O)NCCCNc1nc(N)c(C(=O)c2cccc(OCc3ccccc3)c2)s1 [Example 6, {3-[4-Amino-5-(3-benzyloxybenzoyl)thiazol-2-ylamino]propyl}carbamic acid tert-butyl ester] |  | > 6.00 | 
CN1CCN(CCCNc2nc(N)c(C(=O)c3ccc(Cl)s3)s2)CC1 (as salt: hydrochloride) [Example 8, {4-Amino-2-[3-(4-methylpiperazin-1-yl)propylamino]thiazol-5-yl}-(5-chlorothiophen-2-yl)methanone] | 210 to 212 |  | 
CN1CCN(CCCNc2nc(N)c(C(=O)c3cccc(OCc4ccccc4)c3)s2)CC1 (as salt: hydrochloride) [Example 10, {4-Amino-2-[3-(4-methylpiperazin-1-yl)propylamino]thiazol-5-yl}-(3-benzyloxyphenyl)methanone] | 99 to 100 |  | 
Nc1nc(NCCCN2CCCC2=O)sc1C(=O)c1ccc(Cl)s1 [Example 7, 1-{3-[4-Amino-5-(5-chlorothiophene-2-carbonyl)thiazol-2-ylamino]propyl}pyrrolidin-2-one] | 224 to 225 | > 6.00 | 
CN1CCN(CCCNc2nc(N)c(C(=O)c3cccc(OCc4ccccc4)c3)s2)CC1 [Example 10, {4-Amino-2-[3-(4-methylpiperazin-1-yl)propylamino]thiazol-5-yl}-(3-benzyloxyphenyl)methanone] |  | > 6.00 | 
